Results taken from article PMC4112042, “Phase 1 dose-escalation study of the PARP inhibitor CEP-9722 as monotherapy or in combination with temozolomide in patients with solid tumors” (Cancer Chemotherapy and Pharmacology, 2014).

Assays:
PARP-2 = PARP-2 enzyme; cited from earlier work
human bone marrow cells = test system: human bone marrow cells; set-up: method as in PMID 17699724; settings: CFU-GM colony-forming assay; cited from earlier work
PARP-1 = PARP-1 enzyme; cited from earlier work
[1] = Plasma pharmacokinetics of CEP-8983 after oral CEP-9722; type: in vivo, human; set-up: AUC0–∞, mean ± SD / AUC0–t, mean ± SD / AUCτ, mean ± SD: concentration or dose not given beside the values
Experimental: Pharmacokinetic serum samples were collected on day 1 of cycle 1 pre-dose and 0.5, 1, 2, 3, 4, 6, 8, 10, and 24 h post-dose; and on day 5 of cycle 1 and cycle 2 pre-dose, and 0.5, 1, 2, 3, 4, 6, 8, 10, 24, and 48 h post-dose. Urine samples were obtained on day 1 of cycle 1 during 4 intervals in the 24 h following study drug administration. Pharmacokinetic parameters (area under the plasma drug concentration–time curve from time 0 to infinity [AUC0–∞], AUC from time 0 to the time of the last measurable drug concentration [AUC0–t], AUC for 1 dosing interval [AUCτ] following multiple doses, maximum observed plasma concentration [C max], and time to maximum observed plasma concentration [T max]) were summarized at each visit (day 1 of cycle 1 and day 5 of cycles 1 and 2) using descriptive statistics.

[2] = nonacidic environments; cited from earlier work
[3] = in vivo; cited from earlier work
[4] = test system: chemoresistant tumor cells; set-up: method as in PMID 17699724; settings: in vitro and in xenograft models; cited from earlier work
[5] = day 5 of cycle 1, nonsmoker without medication affecting gastric pH, n = 13
[6] = day 5 of cycle 1, smoker and/or with medication affecting gastric pH, n = 11

**Q.** Which IC50 (PARP-2) does the source give for `COc1cccc2[nH]c3c4c(c5c(c3c12)C(=O)NC5=O)CCC4` [CEP-8983] here?
**A.** Its IC50 is 6 nM.

**Q.** And the myelotoxicity of temozolomide (human bone marrow cells)?
**A.** Its myelotoxicity of temozolomide is “only modest increases”.

**Q.** What about the IC50 (PARP-1) of the same molecule?
**A.** The IC50 was 20 nM.

**Q.** What about the “mean AUC0–t” value ([1]; day 1 of cycle 1, nonsmokers not receiving gastric pH-modifying medications) of the same molecule?
**A.** The value was 4,960.6 ng h/mL.

**Q.** And the “mean AUC0–t” value ([1]; day 1 of cycle 1, smokers and/or patients receiving gastric pH-modifying medications)?
**A.** The value was 2,747.3 ng h/mL.

**Q.** What about the “AUC0–t, mean ± SD” value [1, 5] of the same molecule?
**A.** Its value is 3,138.0 ± 2,160.74 ng h/mL.

**Q.** And the “AUC0–∞, mean ± SD” value [1, 5]?
**A.** The value was 4,111.0 ± 4,126.79 ng h/mL.

**Q.** What about the “AUCτ, mean ± SD” value [1, 5] of the same molecule?
**A.** Its value is 3,851.1 ± 3,578.78 ng h/mL.

**Q.** What about the “C max, mean ± SD” value [1, 5] of the same molecule?
**A.** The value was 607.5 ± 319.87 ng/mL.

**Q.** What about the “CL/F, mean ± SD” value [1, 5] of the same molecule?
**A.** Its value is 20.4 ± 25.80 L/h.

**Q.** And the “Percentage extrapolation, mean ± SD” value [1, 5]?
**A.** The value was 3.7 ± 3.82%.

**Q.** And the “V/F, mean ± SD” value [1, 5]?
**A.** The value was 58.1 ± 60.23 L.

**Q.** And the “t max, mean ± SD” value [1, 5]?
**A.** Its value is 36 ± 39.6 min.

**Q.** What about the “λ z, mean ± SD” value [1, 5] of the same molecule?
**A.** The value was 0.1 ± 0.13 h⁻¹.

**Q.** What about the “AUC0–t, mean ± SD” value [1, 6] of the same molecule?
**A.** The value was 1,339.3 ± 2,127.07 ng h/mL.

**Q.** And the “AUC0–∞, mean ± SD” value [1, 6]?
**A.** Its value is 2,838.9 ± 5,740.57 ng h/mL.

**Q.** What about the “AUCτ, mean ± SD” value [1, 6] of the same molecule?
**A.** The value was 2,304.7 ± 4,161.29 ng h/mL.

**Q.** And the “C max, mean ± SD” value [1, 6]?
**A.** Its value is 352.5 ± 380.57 ng/mL.

**Q.** What about the “CL/F, mean ± SD” value [1, 6] of the same molecule?
**A.** Its value is 67.1 ± 62.14 L/h.

**Q.** What about the “Percentage extrapolation, mean ± SD” value [1, 6] of the same molecule?
**A.** The value was 5.5 ± 8.29%.

**Q.** And the “V/F, mean ± SD” value [1, 6]?
**A.** Its value is 102.3 ± 100.76 L.

**Q.** What about the “t 1/2, mean ± SD” value [1, 6] of the same molecule?
**A.** The value was 42 ± 46.2 min.

**Q.** What about the “t max, mean ± SD” value [1, 6] of the same molecule?
**A.** Its value is 36 ± 39.6 min.

**Q.** And the “λ z, mean ± SD” value [1, 6]?
**A.** Its value is 0.2 ± 0.21 h⁻¹.

**Q.** And the “mean AUC0–t” value ([1]; day 5 of cycle 2, nonsmokers not receiving gastric pH-modifying medications)?
**A.** The value was 2,574.4 ng h/mL.

**Q.** And the “mean AUC0–t” value ([1]; day 5 of cycle 2, smokers and/or patients receiving gastric pH-modifying medications)?
**A.** The value was 1,457.9 ng h/mL.

**Q.** And the solubility [2]?
**A.** Its solubility is “poorly soluble”.

**Q.** What about the oral bioavailability [3] of the same molecule?
**A.** Its oral bioavailability is “low oral bioavailability”.

**Q.** What about the “sensitivity of chemoresistant tumor cells to temozolomide” value [4] of the same molecule?
**A.** The value was “increased the sensitivity”.
